Values belong to the molecule of their own block, whether it stands above or below them.
Experiments:
SK-OV-3 = experiment: Phototoxicity in human SKOV3 cells assessed as reduction in cell viability in presence of irradiation with green lED light at 25.2 J/cm2 for 2 hrs followed by incubation in dark for 24 hrs by MTT assay; assay type: functional, cell-based; details: SK-OV-3, light or radiation study
[1] = Dark toxicity in human […] cells assessed as cell viability at 10 ug/ml by CCK8 assay; assay type: cell-based; details: read-out: Activity
[2] = Lipophilicity, log P of the compound; assay type: physicochemical; details: octanol/water
[3] = Phototoxicity in human […] cells assessed as cell viability at 10 ug/ml under irradiation at 457 nm at 20 J/cm2 by CCK8 assay; assay type: functional; details: light or radiation study, read-out: Activity
[4] = Dark toxicity in human […] cells assessed as cell viability at 50 ug/ml by CCK8 assay; assay type: cell-based; details: read-out: Activity
[5] = Phototoxicity in human […] cells assessed as cell viability at 5 ug/ml under irradiation at 532 nm by CCK8 assay; assay type: functional; details: light or radiation study, read-out: Activity
BXPC-3 [6] = experiment: Phototoxicity in human BxPC3 cells assessed as inhibition of cell growth at 12.5 uM pre-incubated for 3 hrs before irradiation with 780 nm light for 1 mins and measured after 24 hrs by MTT assay; assay type: functional; details: BXPC-3, light or radiation study, read-out: GI
[7] = Dark toxicity in human MIAPaCa2 cells assessed as inhibition of cell growth at 6.25 to 25 uM incubated for 24 hrs by MTT assay; assay type: cell-based, MIA PaCa-2; details: read-out: GI
BXPC-3 [8] = experiment: Phototoxicity in human BxPC3 cells assessed as inhibition of cell growth at 25 uM pre-incubated for 3 hrs before irradiation with 780 nm light for 1 mins and measured after 24 hrs by MTT assay; assay type: functional; details: BXPC-3, light or radiation study, read-out: GI
MIA PaCa-2 [9] = experiment: Phototoxicity in human MIAPaCa2 cells assessed as inhibition of cell growth at 25 uM pre-incubated for 3 hrs before irradiation with 780 nm light for 1 mins and measured after 24 hrs by MTT assay; assay type: functional; details: MIA PaCa-2, light or radiation study, read-out: GI
[10] = Dark toxicity in human BxPC3 cells assessed as inhibition of cell growth at 6.25 to 25 uM incubated for 24 hrs by MTT assay; assay type: cell-based, BXPC-3; details: read-out: GI
MIA PaCa-2 [11] = experiment: Phototoxicity in human MIAPaCa2 cells assessed as inhibition of cell growth at 6.25 uM pre-incubated for 3 hrs before irradiation with 780 nm light for 1 mins and measured after 24 hrs by MTT assay; assay type: functional; details: MIA PaCa-2, light or radiation study, read-out: GI
BXPC-3 [12] = experiment: Phototoxicity in human BxPC3 cells assessed as inhibition of cell growth at 6.25 uM pre-incubated for 3 hrs before irradiation with 780 nm light for 1 mins and measured after 24 hrs by MTT assay; assay type: functional; details: BXPC-3, light or radiation study, read-out: GI
MIA PaCa-2 [13] = experiment: Phototoxicity in human MIAPaCa2 cells assessed as inhibition of cell growth at 12.5 uM pre-incubated for 3 hrs before irradiation with 780 nm light for 1 mins and measured after 24 hrs by MTT assay; assay type: functional; details: MIA PaCa-2, light or radiation study, read-out: GI
[14] = Phototoxicity in mouse DLA cells assessed as inhibition of cell viability illuminated for 10 mins at total dose of 46 J/cm2 irradiation by trypan blue dye exclusion method; assay type: functional
[15] = Dark toxicity in mouse DLA cells assessed as inhibition of cell viability by trypan blue dye exclusion method; assay type: cell-based; details: read-out: INH
[16] = Dark toxicity in human K562 cells assessed as reduction in cell viability after 72 hrs by MTT assay; assay type: cell-based
[17] = Dark toxicity in human Jurkat cells assessed as reduction in cell viability after 72 hrs by MTT assay; assay type: cell-based
[18] = Dark toxicity in human LoVo cells assessed as reduction in cell viability after 72 hrs by MTT assay; assay type: cell-based
[19] = Dark toxicity in human A431 cells assessed as reduction in cell viability after 72 hrs by MTT assay; assay type: cell-based, A-431
Jurkat = experiment: Phototoxicity in human Jurkat cells assessed as cell viability at 2 to 8 umol/L pre-incubated for 30 mins before irradiation at 365 nm at 3.75 J/cm2 and measured after 72 hrs by MTT assay; assay type: functional; details: light or radiation study
K562 = experiment: Phototoxicity in human K562 cells assessed as cell viability at 2 to 8 umol/L pre-incubated for 30 mins before irradiation at 365 nm at 3.75 J/cm2 and measured after 72 hrs by MTT assay; assay type: functional; details: K562, light or radiation study
LoVo = experiment: Phototoxicity in human LoVo cells assessed as cell viability at 2 to 8 umol/L pre-incubated for 30 mins before irradiation at 365 nm at 3.75 J/cm2 and measured after 72 hrs by MTT assay; assay type: functional; details: light or radiation study
A-431 = experiment: Phototoxicity in human A431 cells assessed as cell viability at 2 to 8 umol/L pre-incubated for 30 mins before irradiation at 365 nm at 3.75 J/cm2 and measured after 72 hrs by MTT assay; assay type: functional; details: A-431, light or radiation study

SMILES: CC1=C(I)C(C)=[N+]2C1=C(c1ccncc1)c1c(C)c(I)c(C)n1[B-]2(F)F
EC50 (SK-OV-3): 1.29 nM

logP [2]: 2.32 to 3.04
SMILES: COCCOCCOCCN(CCOCCOCCOC)c1ccc(/C=C2\CC/C(=C\c3ccc(N(CCOCCOCCOC)CCOCCOCCOC)cc3)C2=O)cc1
viability at 10 ug/ml [1]: > 80%
viability at 10 µg/mL [3]: 60%

SMILES: CN(CCC(=O)O)c1ccc(/C=C2\CC/C(=C\c3ccc(N(C)CCC(=O)O)cc3)C2=O)cc1
viability at 50 ug/ml [4]: > 70%
viability at 5 µg/mL [5]: > 80%

SMILES: CC1=C(I)C(C)=[N+]2C1=Cc1c(C)c(I)c(C)n1[B-]2(F)F
EC50 (SK-OV-3): 28.8 nM

logP [2]: 2.32 to 3.04
SMILES: CCN(CC)c1ccc(/C=C2\CC/C(=C\c3ccc(N(CCOCCOCCOCCOC)CCOCCOCCOCCOC)cc3)C2=O)cc1
viability at 10 ug/ml [1]: > 80%
viability at 10 µg/mL [3]: 10%

SMILES: CC1(C)C(/C=C/C2=C(Cl)C(=C/C=C3/N(CCCCS(=O)(=O)O)c4ccc(I)cc4C3(C)C)/CCC2)=[N+](CCCCS(=O)(=O)O)c2ccc(I)cc21
inhibition of growth at 12.5 µM (BXPC-3 [6]): > 20%
inhibition at 24 h, up to 25 µM [7]: 0%
inhibition of growth at 25 µM (BXPC-3 [8]): 40%
inhibition of growth at 25 µM (MIA PaCa-2 [9]): > 80%
inhibition at 24 h, up to 25 µM [10]: 0%
inhibition of growth at 6.25 µM (MIA PaCa-2 [11]): 30%
inhibition of growth at 6.25 µM (BXPC-3 [12]): > 10%
inhibition of growth at 12.5 µM (MIA PaCa-2 [13]): > 60%

SMILES: CC(C)c1ccc(C2=C([O-])/C(=C\c3sc4cc(I)ccc4[n+]3CCCCS(=O)(=O)O)C2=O)cc1
inhibition (INH) [14]: 80%
cytotoxicity [15]: < 10%

SMILES: CC1(C)C(/C=C/C2=C(Cl)C(=C/C=C3/N(CCCCS(=O)(=O)O)c4cc(I)cc(I)c4C3(C)C)/CCC2)=[N+](CCCCS(=O)(=O)O)c2cc(I)cc(I)c21
inhibition of growth at 12.5 µM (BXPC-3 [6]): > 20%
inhibition at 24 h, up to 25 µM [7]: 0%
inhibition of growth at 25 µM (BXPC-3 [8]): 40%
inhibition of growth at 25 µM (MIA PaCa-2 [9]): 70%
inhibition at 24 h, up to 25 µM [10]: 0%
inhibition of growth at 6.25 µM (MIA PaCa-2 [11]): 20%
inhibition of growth at 6.25 µM (BXPC-3 [12]): > 10%
inhibition of growth at 12.5 µM (MIA PaCa-2 [13]): > 40%

SMILES: CCN(CC)c1ccc(/C=C2\CC/C(=C\c3ccc(N(C)CCC(=O)O)cc3)C2=O)cc1
viability at 50 ug/ml [4]: < 30%
viability at 5 µg/mL [5]: < 10%

SMILES: CC1(C)C(/C=C/C=C/C=C/C=C2\N(CCCCS(=O)(=O)O)c3ccc4ccccc4c3C2(C)C)=[N+](CCCCS(=O)(=O)[O-])c2ccc3ccccc3c21 [INDOCYANINE GREEN]
inhibition of growth at 12.5 µM (BXPC-3 [6]): 0%
inhibition at 24 h, up to 25 µM [7]: 0%
inhibition of growth at 25 µM (BXPC-3 [8]): 0%
inhibition of growth at 25 µM (MIA PaCa-2 [9]): 0%
inhibition at 24 h, up to 25 µM [10]: 0%
inhibition of growth at 6.25 µM (MIA PaCa-2 [11]): 0%
inhibition of growth at 6.25 µM (BXPC-3 [12]): 0%
inhibition of growth at 12.5 µM (MIA PaCa-2 [13]): 0%

logP [2]: 2.32 to 3.04
SMILES: COCCOCCOCCOCCN(C)c1ccc(/C=C2\CC/C(=C\c3ccc(N(C)CCOCCOCCOCCOC)cc3)C2=O)cc1
viability at 10 ug/ml [1]: > 80%
viability at 10 µg/mL [3]: < 10%

SMILES: CCOC(=O)c1cc2c(n1Cc1ccc(C)cc1)-c1nc(N)ncc1CC2
GI50 at 72 h [16]: > 20000 nM
GI50 at 72 h [17]: > 20000 nM
GI50 at 72 h [18]: > 20000 nM
GI50 at 72 h [19]: > 20000 nM
GI50 (Jurkat): 230 nM
GI50 (K562): 410 nM
GI50 (LoVo): 340 nM
GI50 (A-431): 260 nM

SMILES: COc1ccc(C2=C3C(C)=C(I)C(C)=[N+]3[B-](F)(F)n3c(C)c(I)c(C)c32)cc1
EC50 (SK-OV-3): 0.65 nM

SMILES: Cn1ccc2c1-c1[nH]c(=O)ncc1CC2
GI50 at 72 h [16]: > 20000 nM
GI50 at 72 h [17]: > 20000 nM
GI50 at 72 h [18]: > 20000 nM
GI50 at 72 h [19]: > 20000 nM
GI50 (Jurkat): > 20000 nM
GI50 (K562): > 20000 nM
GI50 (LoVo): > 20000 nM
GI50 (A-431): > 20000 nM

SMILES: O=C1C(/C=C2/Sc3cc(I)ccc3N2CCCCS(=O)(=O)O)=C([O-])C/1=C\c1sc2cc(I)ccc2[n+]1CCCCS(=O)(=O)O
inhibition (INH) [14]: 95 - 100%
cytotoxicity [15]: < 10%

SMILES: CCN1/C(=C\C2=C([O-])C(=C\c3sc4cc(I)ccc4[n+]3CCCCS(=O)(=O)O)/C2=O)Sc2ccccc21
inhibition (INH) [14]: 95 - 100%
cytotoxicity [15]: < 10%

SMILES: O=C(O)CCN(CCC(=O)O)c1ccc(/C=C2\CC/C(=C\c3ccc(N(CCC(=O)O)CCC(=O)O)cc3)C2=O)cc1
viability at 50 ug/ml [4]: > 70%
viability at 5 µg/mL [5]: > 80%

SMILES: CCOC(=O)c1cc2c(n1Cc1ccccc1)-c1nc(N)ncc1CC2
GI50 at 72 h [16]: > 20000 nM
GI50 at 72 h [17]: 14000 nM
GI50 at 72 h [18]: 14200 nM
GI50 at 72 h [19]: > 20000 nM
GI50 (Jurkat): 210 nM
GI50 (K562): 480 nM
GI50 (LoVo): 440 nM
GI50 (A-431): 390 nM

SMILES: CC1=C(I)C(C)=[N+]2C1=C(c1c(Cl)cccc1Cl)c1c(C)c(I)c(C)n1[B-]2(F)F
EC50 (SK-OV-3): 0.77 nM

SMILES: CCOC(=O)c1cc2c(n1C)-c1nc(N)ncc1CC2
GI50 at 72 h [16]: > 20000 nM
GI50 at 72 h [17]: > 20000 nM
GI50 at 72 h [18]: > 20000 nM
GI50 at 72 h [19]: > 20000 nM
GI50 (Jurkat): 8420 nM
GI50 (K562): > 20000 nM
GI50 (LoVo): > 20000 nM
GI50 (A-431): > 20000 nM

SMILES: CCOC(=O)c1cc2c(n1C)-c1[nH]c(=O)ncc1CC2
GI50 at 72 h [16]: > 20000 nM
GI50 at 72 h [17]: 6000 nM
GI50 at 72 h [18]: > 20000 nM
GI50 at 72 h [19]: > 20000 nM
GI50 (Jurkat): 1080 nM
GI50 (K562): 2920 nM
GI50 (LoVo): 2300 nM
GI50 (A-431): 2450 nM

logP [2]: 2.32 to 3.04
SMILES: COCCOCCOCCOCCN(CCOCCOCCOCCOC)c1ccc(/C=C2\CC/C(=C\c3ccc(N(CCOCCOCCOCCOC)CCOCCOCCOCCOC)cc3)C2=O)cc1
viability at 10 ug/ml [1]: > 80%
viability at 10 µg/mL [3]: > 60%

SMILES: CC1=C(I)C(C)=[N+]2C1=C(c1ccc([N+](=O)[O-])cc1)c1c(C)c(I)c(C)n1[B-]2(F)F
EC50 (SK-OV-3): 2.01 nM

SMILES: CCN(CC)c1ccc(/C=C2\CC/C(=C\c3ccc(N(CCC(=O)O)CCC(=O)O)cc3)C2=O)cc1
viability at 50 ug/ml [4]: > 70%
viability at 5 µg/mL [5]: > 80%
